Experimental data: patent publication US12692238B2, “Substituted pyridazinone herbicides” (FMC CORPORATION, priority 2020, dated 2026)
Where two headings read alike, the source gives them in different places.

Legend:
Format in all cases: in vivo
[1] = tested on: wheat (Triticum aestivum); experiment: Test A preemergence, wheat; details: 125 g ai/ha, 0 to 100 scale, 10 days
[2] = tested on: soybean (Glycine max); experiment: Test A preemergence, soybean; details: 0 to 100 scale, 10 days
Method in brief: (§1)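 Compounds were sprayed in a non-phytotoxic, surfactant-containing solvent. For preemergence the spray was directed onto freshly seeded loam/sand soil; for postemergence it went onto one- to two-leaf plants. Visual injury, 0–100, was recorded at 10 days.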

[3] = tested on: blackgrass (Alopecurus myosuroides); experiment: Test A postemergence, blackgrass; details: Alopecurus myosuroides, post-emergence, 240 h, 10 days, read-out: Plant response rating, Blackgrass; for pest or weed control at 31 g/ha: 31 g ai/ha; for pest or weed control at 125 g/ha: 125 g ai/ha
Method in brief: as §1

[4] = tested on: oat, wild (wild oat, Avena fatua); experiment: Test A postemergence, oat, wild; details: 10 days
Method in brief: as §1

[5] = tested on: palmer amaranth (pigweed, palmer, Amaranthus palmeri); experiment: Test A preemergence, palmer amaranth; details: 0 to 100 scale, 10 days
Method in brief: as §1

[6] = tested on: oat, wild (wild oat, Avena fatua); experiment: Test A preemergence, oat, wild; details: 0 to 100 scale, 10 days
Method in brief: as §1

[7] = tested on: goosegrass (Eleusine indica); experiment: Test A preemergence, goosegrass; details: 0 to 100 scale, 10 days
Method in brief: as §1

[8] = tested on: horseweed (Erigeron canadensis); experiment: Test A postemergence, horseweed; details: 10 days
Method in brief: as §1

[9] = tested on: blackgrass (Alopecurus myosuroides); experiment: Test A preemergence, blackgrass; details: 0 to 100 scale, 10 days
Method in brief: as §1

[10] = tested on: soybean (Glycine max); experiment: Test A postemergence, soybean; details: 10 days
Method in brief: as §1

[11] = tested on: wheat (Triticum aestivum); experiment: Test A postemergence, wheat; details: Triticum aestivum, post-emergence, 240 h, 10 days, read-out: Plant response rating, Wheat; for plant injury at 31 g/ha: 31 g ai/ha, postemergence, 0 to 100 scale (0 no effect, 100 complete control); for plant injury at 125 g/ha: Postemergence, 125 g ai/ha, 0 to 100 scale
Method in brief: as §1

[12] = tested on: corn (Zea mays); experiment: Test A postemergence, corn; details: Zea mays, post-emergence, 240 h, 10 days; for Corn plant response rating (crop injury, 0 = no effect, 100 = complete kill) at 31 g/ha: 31 g ai/ha; for Corn plant response rating (crop injury, 0 = no effect, 100 = complete kill) at 125 g/ha: 125 g ai/ha
Method in brief: as §1

[13] = tested on: ragweed (common ragweed, Ambrosia artemisiifolia); experiment: Test A preemergence, ragweed; details: Ambrosia artemisiifolia, pre-emergence, 240 h, 0 to 100 scale, 10 days, read-out: Plant response rating, Ragweed; for pest or weed control at 31 g/ha: 31 g ai/ha; for pest or weed control at 125 g/ha: 125 g ai/ha
Method in brief: as §1

[14] = tested on: goosegrass (Eleusine indica); experiment: Test A postemergence, goosegrass; details: 10 days
Method in brief: as §1

[15] = tested on: corn (Zea mays); experiment: Test A preemergence, corn; details: 0 to 100 scale, 10 days
Method in brief: as §1

[16] = tested on: palmer amaranth (pigweed, palmer, Amaranthus palmeri); experiment: Test A postemergence, palmer amaranth; details: 10 days
Method in brief: as §1

[17] = postemergence, 0 to 100 scale (0 no effect, 100 complete control)
[18] = 31 g ai/ha, postemergence, 0 to 100 scale (0 no effect, 100 complete control)
[19] = Postemergence, 125 g ai/ha, 0 to 100 scale

Row | SMILES | Plant response rating, Wheat [1] | Plant response rating, Soybean ([2]; 31 g ai/ha) | Plant response rating, Soybean ([2]; 125 g ai/ha) | pest or weed control at 125 g/ha ([3]; Postemergence, 0 to 100 scale) | Plant response rating, Oat, Wild [4, 18] | Plant response rating, Oat, Wild [4, 19] | Plant response rating, Pigweed, Palmer ([5]; 31 g ai/ha) | Plant response rating, Pigweed, Palmer ([5]; 125 g ai/ha) | Plant response rating, Oat, Wild ([6]; 31 g ai/ha) | Plant response rating, Oat, Wild ([6]; 125 g ai/ha) | Plant response rating, Goosegrass ([7]; 31 g ai/ha) | Plant response rating, Goosegrass ([7]; 125 g ai/ha) | Plant response rating, Horseweed [8, 18] | Plant response rating, Horseweed [8, 19] | Plant response rating, Blackgrass ([9]; 31 g ai/ha) | Plant response rating, Blackgrass ([9]; 125 g ai/ha) | Plant response rating, Soybean [10, 18] | Plant response rating, Soybean [10, 19] | plant injury at 31 g/ha [11] | plant injury at 125 g/ha [11] | further results
1 | COC(=O)OCOc1c(C)nn(C)c(=O)c1-c1c2cc(C)ccc2cc2ccc(F)cc12 [Compound 15, [[5-(2-fluoro-7-methyl-9-anthracenyl)-1,6-dihydro-1,3-dimethyl-6-oxo-4-pyridazinyl]oxy]methyl methyl carbonate] | 0 | 0 | 10 | 10% | 20 | 40 | 100 | 100 | 20 | 20 | 50 | 90 | 100 | 100 | 30 | 10 | 80 | 90 | 0% | 0% | pest or weed control at 31 g/ha [3, 17]: 0%; Corn plant response rating (crop injury, 0 = no effect, 100 = complete kill) at 31 g/ha [12, 17]: 0%; Corn plant response rating (crop injury, 0 = no effect, 100 = complete kill) at 125 g/ha ([12]; Postemergence, 0 to 100 scale): 50%; pest or weed control at 31 g/ha [13]: 100%; pest or weed control at 125 g/ha [13]: 100%; Plant response rating, Goosegrass [14, 18]: 30; Plant response rating, Goosegrass [14, 19]: 60; Plant response rating, Corn ([15]; 31 g ai/ha): 0; Plant response rating, Corn ([15]; 125 g ai/ha): 30; Plant response rating, Pigweed, Palmer [16, 18]: 100; Plant response rating, Pigweed, Palmer [16, 19]: 100
2 | Cc1ccc2cc3ccc(C)cc3c(-c3c(OCOC(=O)C(C)(C)C)c(Cl)nn(C)c3=O)c2c1 [Compound 9, [[3-chloro-5-(2,7-dimethyl-9-anthracenyl)-1,6-dihydro-1-methyl-6-oxo-4-pyridazinyl]oxy]methyl 2,2-dimethylpropanoate] | 0 | 0 | 0 | 0% | 0 | 0 | 40 | 100 | 0 | 0 | 10 | 10 | 100 | 100 | 0 | 0 | 40 | 60 | 0% | 0% | pest or weed control at 31 g/ha ([3]; Postemergence, 0 to 100 scale): 0%; Corn plant response rating (crop injury, 0 = no effect, 100 = complete kill) at 31 g/ha ([12]; Postemergence, 0 to 100 scale): 0%; Corn plant response rating (crop injury, 0 = no effect, 100 = complete kill) at 125 g/ha ([12]; Postemergence, 0 to 100 scale): 20%; pest or weed control at 31 g/ha [13]: 0%; pest or weed control at 125 g/ha [13]: 60%; Plant response rating, Goosegrass [14, 18]: 30; Plant response rating, Goosegrass [14, 19]: 30; Plant response rating, Corn ([15]; 31 g ai/ha): 0; Plant response rating, Corn ([15]; 125 g ai/ha): 0; Plant response rating, Pigweed, Palmer [16, 18]: 80; Plant response rating, Pigweed, Palmer [16, 19]: 80
